The structures appear in SMILES notation. Values after ≈ are worked out from the molar mass of the structure shown.

Holding throughout (format): functional
In one assay the test system is KB. Description: Cytotoxicity against human KB cells after 72 hrs. Conditions: read-out: ED50 (the source's name).
Assay [1] can be described thus: Cytotoxicity against human BC1 cells after 72 hrs. Conditions: BC1, 72 h, read-out: ED50 (the source's name).
For another assay, the system named is Lu1. Description: Cytotoxicity against human Lu1 cells. Conditions: read-out: ED50 (the source's name).
The next assay concerns P388. Briefly: Cytotoxicity against mouse P388 cells after 48 hrs. Conditions: P388, 48 h, read-out: ED50 (the source's name).
A further assay relates to Col2. Briefly: Cytotoxicity against human Col2 cells after 72 hrs. The settings on record: Col2, 72 h, read-out: ED50 (the source's name).
Another assay concerns SK-MEL-2. Briefly: Cytotoxicity against human SK-MEL-2 cells after 72 hrs. Conditions: SK-MEL-2, 72 h, read-out: ED50 (the source's name).
The next assay relates to HT-1080. Description: Cytotoxicity against human HT1080 cells after 48 hrs. Conditions: HT-1080, 48 h, read-out: ED50 (the source's name).

In the case of `C=C(C)[C@H]1Cc2c(ccc3c2O[C@@H]2COc4cc(OC)c(OC)cc4[C@@H]2C3=O)O1` [ROTENONE], the EC50 in the assay on KB turned out to be 0.067 mg/L (≈ 0.17 µM); in assay [1] it was 0.039 mg/L (≈ 0.0989 µM); with Lu1, 0.044 mg/L (≈ 0.112 µM); in the assay on P388, 0.005 mg/L (≈ 0.0127 µM); in the assay with Col2 it was 0.15 mg/L (≈ 0.38 µM); in the assay with SK-MEL-2, 0.092 mg/L (≈ 0.233 µM). Moreover, the EC50 in the assay on HT-1080 amounted to 0.047 mg/L (≈ 0.119 µM).
